Reference: patent US4151361A, “Prostaglandin derivatives” (American Home Products Corporation, priority 1978, dated 1979)

Test system: bronchoconstricting effects of a standard dose of acetylcholine
Test: bronchodilation upon aerosol inhalation (inhibition of acetylcholine bronchoconstriction), method of Rosenthale et al.
Type: in vivo
Details: guinea pig, i.v. acetylcholine dose producing ca. 30% bronchoconstriction
Text: In using the compounds of the invention to produce bronchodilating effects in warm-blooded animals, they may be administered in a variety of dosage forms: oral, injectable, and aerosol inhalation. Aerosol inhalation is a preferred method because of its rapid onset of action, great potency, and specificity of action. The particular dosage to obtain the bronchodilating effect will vary with the particular compound employed, the particular animal involved, and the degree of bronchodilation desired. In the guinea pig, by aerosol inhalation, the dose to produce bronchodilation is from about 0.15 micrograms to about 25 micrograms, and preferably from about 0.15 to about 15 micrograms. The bronchodilation produced upon aerosol inhalation can be observed by the method of Rosenthale et al., J. Pharmacol. Exp. Ther., 178, 541 (1971). Using this procedure the following results were obtained:
*The dose (i.v.) of acetylcholine which produces a ca. 30%

| SMILES | Percent Inhibition of the Bronchoconstricting effects of a standard dose of acetylcholine (dose 1.5 μg) | Percent Inhibition of the Bronchoconstricting effects of a standard dose of acetylcholine (dose 15 μg) | Percent Inhibition of the Bronchoconstricting effects of a standard dose of acetylcholine (dose .015 μg) | Percent Inhibition of the Bronchoconstricting effects of a standard dose of acetylcholine (dose .15 μg) | Percent Inhibition of the Bronchoconstricting effects of a standard dose of acetylcholine (dose .0015 μg) |
| --- | --- | --- | --- | --- | --- |
| C#CC(O)(CCCCC)CC[C@H]1[C@H](O)CC(=O)[C@@H]1C/C=C\CCCC(=O)O (stereo partly shown) [13,14-dihydro-15-ethynyl-PGE2, 13,14-Dihydro-15-Ethynyl-PGE2] | 100% | 91% | 94% | 96% |  |
| C#CC(O)(CCCCC)CC[C@@H]1[C@@H](C/C=C\CCCC(=O)O)[C@H](O)C[C@H]1O (stereo partly drawn) [13,14-dihydro-15-ethynyl-PGF2β, 13,14-Dihydro-15-Ethynyl PGF2β] | 44% | 63% |  |  |  |
| C#CC(O)(CCCCC)CC[C@H]1[C@H](O)CC(=O)[C@@H]1CCCCCCC(=O)O (stereo partly shown) [tetrahydro-15-ethynyl-PGE2, 15-Ethynyl-Tetrahydro-PGE2] | 100% |  | 86% | 99% | 51% |
| C#C[C@](O)(CCCCC)CC[C@H]1[C@H](O)CC(=O)[C@@H]1CCCCCCC(=O)O [tetrahydro-15β-ethynyl-PGE2, 15β-ethynyl-tetrahydro-PGE2] |  |  | 95% | 98% | 58% |
